The source of these data is ChEMBL document CHEMBL3352799, “Arylazolyl(azinyl)thioacetanilides. Part 16: Structure-based bioisosterism design, synthesis and biological evaluation of novel pyrimidinylthioacetanilides as potent HIV-1 inhibitors” (Bioorg Med Chem, 2014).

What is called EC50 is the concentration giving half of the maximal effect. What is called CC50 is the concentration at which the toxic effect on the cells reaches its halfway point. As usually defined, the IC50 is the concentration at which inhibition is half-maximal.

The nature of series [1]: Selectivity index, ratio of CC50 for human MT4 cells to EC50 for HIV1 3B infected in human MT4 cells. It counts as toxicity, cell-based. The conditions noted are these: read-out: Ratio CC50/EC50.
Series [2] in a line: Selectivity index, ratio of CC50 for human MT4 cells to EC50 for HIV1 RES056 expressing reverse transcriptase K103N/Y181C double mutant infected in human MT4 cells. It counts as toxicity, cell-based. The conditions noted are these: read-out: Ratio CC50/EC50.
Series [3] relates to Human immunodeficiency virus 1. As to the kind of experiment: Antiviral activity against HIV1 RES056 expressing reverse transcriptase K103N/Y181C double mutant infected in human MT4 cells assessed as reduction in virus-induced cytopathogenicity by MTT assay. The conditions noted are these: Human immunodeficiency virus 1, RES056, MT4. The series is classed as functional, organism-based. In general terms: Damage to the host cells serves as the signal in cytopathic effect assays.

The test system of series [4] is Human immunodeficiency virus 1. As to the kind of experiment: Antiviral activity against HIV1 3B infected in human MT4 cells assessed as reduction in virus-induced cytopathogenicity by MTT assay. The series is classed as functional, organism-based. The conditions noted are these: Human immunodeficiency virus 1, 3B.
Series [5] can be described thus: Cytotoxicity against human MT4 cells by MTT assay. The series is classed as cell-based. On the technique in general: Tetrazolium dyes change colour on reduction, which living cells bring about.
Series [6] concerns Human immunodeficiency virus 2. The experiment in a line: Antiviral activity against HIV2 ROD infected in human MT4 cells assessed as reduction in virus-induced cytopathogenicity by MTT assay. It counts as functional, organism-based. The conditions noted are these: ISOLATE ROD.
For series [7], the target named is Human immunodeficiency virus type 1 reverse transcriptase (Human immunodeficiency virus 1, UniProt Q72547). As to the kind of experiment: Inhibition of HIV1 reverse transcriptase assessed as inhibition of biotin-dUTP incorporation using hybrid poly (A).oligo (dT)15 template primer incubated for 1 hr at 37 degC by ELISA method. For orientation: ELISA stands for enzyme-linked immunosorbent assay.

Activity calls are given as the source filed them. The calls are words filed in the database; no cut-off is given here. A value given as a limit tells only on which side of the number the result lay.

`O=C(CSc1nnccc1-c1cccc2ccccc12)Nc1ccccc1[N+](=O)[O-]`: the selectivity ratio in series [1] is 2150.
For the compound `CCOC(=O)c1ccc(NC(=O)CSc2ncncc2-c2cccc3ccccc23)c(Cl)c1`, the figures for the selectivity ratio in series [2] and in series [1] were less than 1 and 43, respectively. The EC50 in series [3] is more than 195 µM; in series [4] it was 4.55 µM. The same compound returned a CC50 in series [5] of 195 µM. Also, the inhibition entry in series [6] was “inactive”.
On to `COC(=O)c1ccc(NC(=O)CSc2ncncc2-c2cccc3ccccc23)c(Br)c1`, for which the selectivity ratio in series [2] is less than 1; in series [1], 69. For the same compound, the EC50 in series [3] was more than 168 µM; in series [4], 2.42 µM. The CC50 in series [5] is 168 µM. Moreover, the inhibition result in series [6] is “inactive”.
As to `CONC(=O)c1ccc(NC(=O)CSc2ncncc2-c2cccc3ccccc23)c(Cl)c1`, the selectivity ratio was less than 1 in series [2] and 175 in series [1]. The EC50 in series [3] was more than 131 µM; in series [4] it was 0.75 µM. Further, the CC50 in series [5] amounted to 131 µM. Moreover, in series [6], the inhibition entry is “inactive”.
Consider `O=C(CSc1ncncc1-c1cccc2ccccc12)Nc1ccc(C(=O)O)cc1Cl`, for which the selectivity ratio in series [2] was less than 1; in series [1] it was 13. For the same compound, the half-maximal effective concentration (EC50) is more than 108 µM in series [3] and 8.13 µM in series [4]. This compound also yielded a CC50 in series [5] of 108 µM. In addition, the inhibition entry in series [6] is “inactive”.
On to `COc1ccc(Cn2cc(CSc3ncncc3-c3cccc4ccccc34)nn2)cc1`, for which the selectivity ratio in series [2] and in series [1] was less than 1 each time. The EC50 in series [3] is more than 31.2 µM; in series [4], more than 31.1 µM. The compound also came in with a cytotoxic concentration (CC50) in series [5] of 31.2 µM. Further, the inhibition result in series [6] is “inactive”.
Take `NS(=O)(=O)c1ccc(NC(=O)CSc2ncncc2-c2cccc3ccccc23)c(Br)c1`: the values for the selectivity ratio in series [2] and in series [1] were 6 and 132, respectively. Further, the values for the EC50 in series [3] and in series [4] were 3.9 µM and 0.18 µM, respectively. The CC50 in series [5] stood at 24.1 µM. Further, in series [6], the inhibition result is “inactive”.
Consider `CCOC(=O)c1ccc(NC(=O)CSc2ncncc2-c2cccc3ccccc23)c(Br)c1`, for which the selectivity ratio in series [2] is less than 1; in series [1], 47. In addition, the figures for the EC50 in series [3] and in series [4] were more than 211 µM and 4.46 µM, respectively. Also, it took 211 µM to reach half-maximal cytotoxicity in series [5] (CC50). Further, the inhibition result in series [6] was “inactive”.
As for `O=C(CSc1ncncc1-c1cccc2ccccc12)Nc1ccccc1[N+](=O)[O-]`, the selectivity ratio in series [2] is less than 1; in series [1] it was 25. In addition, the figures for the EC50 in series [3] and in series [4] were more than 22.5 µM and 0.91 µM, respectively. Also, the CC50 in series [5] is 22.5 µM. Also, in series [6], the inhibition result was “inactive”.
As for `CCOC(=O)C(C)NC(=O)c1ccc(NC(=O)CSc2ncncc2-c2cccc3ccccc23)c(Cl)c1` (configuration not stated), the selectivity ratio in series [2] is less than 1; in series [1], 13. The EC50 in series [3] is more than 35.6 µM; in series [4] it was 2.76 µM. Further, the 50% cytotoxic concentration (CC50) in series [5] is 35.6 µM. In series [6], the inhibition entry was “inactive”.
For `COC(=O)c1ccc(NC(=O)CSc2ncncc2-c2cccc3ccccc23)c([N+](=O)[O-])c1`, the selectivity ratio in series [2] was 1; in series [1] it was not below 55. For the same compound, the EC50 in series [3] is more than 196 µM; in series [4], 3.58 µM. The same compound registered a CC50 in series [5] not below 196 µM. In addition, the inhibition result in series [6] was “inactive”.
Turning to `O=C1Nc2ccc(Cl)cc2[C@@](C#CC2CC2)(C(F)(F)F)O1` [EFAVIRENZ], the selectivity ratio in series [2] is more than 27; in series [1], more than 1180. The EC50 in series [3] was found to be 0.23 µM; in series [4] it was 0.0053 µM. Moreover, the CC50 in series [5] was more than 6.3 µM.
Turning to `O=C(CSc1ncncc1-c1cccc2ccccc12)Nc1ccc(C(=O)O)nc1Cl`, the selectivity ratio in series [2] is less than 1; in series [1] it was 5. The EC50 in series [3] was more than 127 µM; in series [4], 24.2 µM. Besides, in series [5], it took 127 µM to reach half-maximal cytotoxicity (CC50). Further, the inhibition entry in series [6] was “inactive”.
Turning to `CC(C)Nc1cccnc1N1CCN(C(=O)c2cc3cc(NS(C)(=O)=O)ccc3[nH]2)CC1` [DELAVIRDINE], the figures for the selectivity ratio in series [2] and in series [1] were 1 and more than 89, respectively. The EC50 in series [3] was more than 43.8 µM; in series [4], 0.49 µM. Moreover, the CC50 in series [5] was more than 43.8 µM.
For the compound `O=C(CSc1ncncc1-c1cccc2ccccc12)Nc1ccc(C(=O)NO)cc1Cl`, the results for the selectivity ratio in series [2] and in series [1] were less than 1 and 8, respectively. Further, the results for the EC50 in series [3] and in series [4] were more than 4.8 µM and 0.63 µM, respectively. The compound further gave a half-maximal cytotoxic concentration (CC50) in series [5] of 4.8 µM. The inhibition entry in series [6] is “inactive”.
For the compound `COC(=O)c1ccc(NC(=O)CSc2ncncc2-c2cccc3ccccc23)c(Cl)c1`, the values for the selectivity ratio in series [2] and in series [1] were less than 1 and 54, respectively. Moreover, the EC50 is more than 154 µM in series [3] and 2.84 µM in series [4]. Besides, in series [5], the CC50 came to 154 µM. Moreover, the inhibition entry in series [6] is “inactive”.
In the case of `Cc1ccnc2c1NC(=O)c1cccnc1N2C1CC1` [NEVIRAPINE], the EC50 in series [3] was more than 14.4 µM. In series [5], this compound had a CC50 of more than 14.4 µM.
With `O=C(CSc1nccnc1-c1ccccc1Cl)Nc1ccccc1[N+](=O)[O-]`, the selectivity ratio in series [1] is 23.
In the case of `O=C(O)c1ccc(-n2cc(CSc3ncncc3-c3cccc4ccccc34)nn2)cc1`, the selectivity ratio in series [2] and in series [1] was less than 1 in each case. The EC50 in series [3] and in series [4] was more than 95.9 µM in each case. Besides, it took 95.9 µM to reach half-maximal cytotoxicity in series [5] (CC50). The inhibition result in series [6] was “inactive”.
Turning to `CCOC(=O)CNC(=O)c1ccc(NC(=O)CSc2ncncc2-c2cccc3ccccc23)c(Cl)c1`, the selectivity ratio in series [2] is 3; in series [1], 684. In addition, the EC50 amounted to 30.6 µM in series [3] and 0.15 µM in series [4]. Besides, in series [7], the IC50 is 1.31 µM. This compound also registered a CC50 in series [5] of 105 µM. Besides, the inhibition entry in series [6] is “inactive”.
Take `NS(=O)(=O)c1ccc(NC(=O)CSc2nncnc2-c2cccc3ccccc23)c(Br)c1`: the selectivity ratio in series [1] is 1290.
As for `Brc1ccccc1Cn1cc(CSc2ncncc2-c2cccc3ccccc23)nn1`, the selectivity ratio in series [2] and in series [1] was less than 1 throughout. Further, the EC50 in series [3] and in series [4] was more than 39.4 µM in each case. The CC50 in series [5] was 39.4 µM. In addition, the inhibition result in series [6] is “inactive”.
